Consider three molecules from patent US20130123285A1, “Compositions and Methods for Targeting A3G:RNA Complexes” (UNIVERSITY OF ROCHESTER, priority 2010, published 2013).

The target of one data set is T1, A3G (Homo sapiens, UniProt Q9HC16).
T1 construct: polyhistidine (C); made in house; host or cells: Baculovirus-infected Sf9 insect cells
In words: In vitro DNA deaminase activity of purified A3G. The data set is classed as biochemical. Particulars: purified A3G treated at varying concentrations.

The next data set addresses T2, A3G:RNA complexes (Homo sapiens, UniProt Q9HC16).
T2 construct: polyhistidine (C); made in house; host or cells: Baculovirus-infected Sf9 insect cells
In words: EMSA of A3G:RNA complexes assembled on radiolabeled RNA (disaggregation of HMM). Particulars: range of concentrations. The class given is binding. On the procedure:
The Electrophoretic Gel Mobility Shift Assay (EMSA) provides a visual and quantitative measure of the efficiency of A3G-RNA complex formation. EMSA was used initially to determine the optimum buffer conditions, molar ratio of A3G to RNA as well as the temperature and the duration of the complex assembly reaction.
The four compounds depicted in FIG. 7 were evaluated for their ability to disaggregate A3G:RNA complexes by treating A3G:RNA complexes assembled on radiolabeled RNA with each chemistry over a range of concentrations and then evaluated for size reduction of HMM by EMSA.

Data set [1] deals with pseudotyped HIV in TZM-bl cells. In words: Single round infectivity of pseudotyped HIV in wild type TZM-bl cells. The class given is cell-based. Particulars: viruses +/- Vif. The source says:
(§1) Viral particles were harvested from media of producer cells, normalized based on p24 content and equal number of virus particles were used to infect wild type TZM-bl or TZM-bl-A3G cells. […] However, HIV replication and, consequently Tat expression, are anticipated to be inhibited if dissolution of HMM by A3G activators was able to stimulate host defense.

The target in data set [2] is T3, HMM A3G (A3G:RNA complexes assembled in cells) (Homo sapiens, UniProt Q9HC16).
T3 construct: expressed in transfected cells; host or cells: TZM-bl cells stably transfected with A3G cDNA (TZM-bl-A3G); The HMM fraction was isolated from cell extracts by size exclusion chromatography
Kind of data set: In vitro deaminase activity of HMM isolated from TZM-bl-A3G cells. Particulars: 20 μM. The data set is classed as biochemical. The procedure: Experiments were performed to directly test whether the compounds could activate antiviral activity from HMM in living cells. For this a cell line that expressed A3G as HMM was created. TZM-bl reporter cells were transfected with A3G cDNA and a cell line with stable expression of A3G was selected (TZM-bl-A3G). To verify HMM A3G, cell extracts were prepared from TZM-bl-A3G cells and fractionated by size exclusion chromatography. […] Isolated HMM had low levels of in vitro deaminase activity (4% dC to dU) that could be activated 10-fold by RNase digestion (FIG. 12, top panel). Treatment of HMM with 20 μM Clonidine and Altanserin activated A3G deaminase activity 6- and 8-fold respectively compared to untreated HMM (FIG. 12, bottom panel).

In data set [3] the test system is pseudotyped HIV in TZM-bl-A3G cells. Kind of data set: microbe, parasite or virus in culture. The data set is classed as cell-based.
Excerpt: as §1

The next data set deals with APOBEC3G (hA3G) (Homo sapiens, UniProt Q9HC16 Q9HC16:1-384). Kind of data set: EMSA; Kd stated for optimal AU-rich RNA with G or C every fourth nucleotide; 99 nt RNA selected for the assay. Particulars: tags: C-terminal polyhistidine tag. The procedure: Experiments were performed to determine what length and sequence of nonspecific RNA would yield the most efficient formation of A3G:RNA complexes. A3G was expressed using the Baculovirus system and purified by nickel affinity chromatography. RNAs varying in GC and AU content were synthesized chemically or transcribed in vitro in lengths varying from 10 to 99 nucleotides (nt). A3G:RNA complexes were assembled in vitro with these RNAs over a range of A3G concentrations and the yield of small and large complexes determined by electrophoretic mobility shift on native gels (EMSA). […] A 99 nt RNA was selected for the HTS assay. The RNA used for the following data had the sequence: […]

Bounds are passed on as bounds.

T3 sequence (Q9HC16 whole entry, one chain of several): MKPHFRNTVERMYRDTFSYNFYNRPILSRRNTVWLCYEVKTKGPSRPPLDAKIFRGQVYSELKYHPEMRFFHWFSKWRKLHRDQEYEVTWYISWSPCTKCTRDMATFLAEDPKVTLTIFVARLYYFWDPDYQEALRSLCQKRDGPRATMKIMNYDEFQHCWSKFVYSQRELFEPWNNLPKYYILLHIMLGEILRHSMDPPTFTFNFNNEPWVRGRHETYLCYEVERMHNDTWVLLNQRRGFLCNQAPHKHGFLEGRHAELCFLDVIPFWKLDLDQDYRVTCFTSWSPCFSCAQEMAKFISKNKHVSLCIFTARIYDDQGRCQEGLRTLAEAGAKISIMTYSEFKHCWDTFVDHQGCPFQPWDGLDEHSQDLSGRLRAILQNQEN
T2 sequence (Q9HC16 whole entry, one chain of several): as above
T1 sequence (Q9HC16 whole entry): as the sequence (Q9HC16 whole entry, one chain of several) above
Chain of APOBEC3G (hA3G) (Q9HC16 whole entry, one chain of several): as above

As for `Clc1cccc(Cl)c1N=C1NCCN1` [Clonidine], the “inhibition of A3G deaminase activity” value at A3G is recorded as “none of the hits inhibited A3G deaminase activity”. Besides, the “dissolution of A3G:RNA aggregates (HMM) by EMSA” value at A3G:RNA complexes is on record as “dose-dependent dissolution of A3G:RNA aggregates to faster migrating lower molecular mass (LMM) complexes”. For the same molecule, the “antiviral activity in TZM-bl cells” value in data set [1] is listed as “not in TZM-bl cells”. The “activation of A3G deaminase activity compared to untreated HMM” value in data set [2] amounted to 6 fold.
As to `O=C(c1ccc(F)cc1)C1CCN(CCn2c(=S)[nH]c3ccccc3c2=O)CC1` [Altanserin], at A3G, the “inhibition of A3G deaminase activity” value is “none of the hits inhibited A3G deaminase activity”. Further, the “dissolution of A3G:RNA aggregates (HMM) by EMSA” value at A3G:RNA complexes was “completely dissociate RNA from a portion of the A3G complexes”. For the same molecule, the “antiviral activity in TZM-bl cells” value in data set [1] was “not in TZM-bl cells”. Moreover, the “activation of A3G deaminase activity compared to untreated HMM” value in data set [2] amounted to 8 fold. Further, the inhibition at 20 µM in data set [3] (Human immunodeficiency virus 1, read-out: inhibition of viral infectivity) is more than 40%. Besides, the “antiviral activity in TZM-bl-A3G cells” value in data set [3] (viruses +/- Vif) is listed as “induced antiviral activity in TZM-bl-A3G cells”.

B1: 99 nt nonspecific AU-rich RNA (ssRNA)
RNA: GGGAACAAAAGCUGGGUACCGGGCCCCCCCUCGAGGUCGAUGCAGACAUAUAUGAUACAAUUUGAUCAGUAUAUUAAAGAUAGUUAUGAUUUACAAGCU
Consider B1, for which binding with APOBEC3G (hA3G) was characterised by a dissociation constant (Kd) of 30 nM.
